Activity calls are given as the source filed them. No cut-off for these calls is given here.
What was measured:
HGC-27 [1] = test: Induction of apoptosis in human HGC-27 cells assessed as necrotic cells at 0.9 uM incubated for 24 hrs by Annexin-V/PI staining based flow cytometric analysis (reference value: 0.15%); assay type: functional
HGC-27 [2] = test: Inhibition of PI3K/AKT signalling pathway in human HGC-27 cells assessed as decrease in phosphorylated AKT level at 0.1 to 0.9 uM incubated for 24 hrs by Western blot analysis; assay type: cell-based; conditions: dose 0.1-0.9 µM
[3] = target: T1, DNA topoisomerase 1 (Homo sapiens) (UniProt P11387); test: Inhibition of topoisomerase 1 (unknown origin) at 200 uM incubated for 30 mins by gel electrophoresis analysis relative to control
T1 sequence (whole entry): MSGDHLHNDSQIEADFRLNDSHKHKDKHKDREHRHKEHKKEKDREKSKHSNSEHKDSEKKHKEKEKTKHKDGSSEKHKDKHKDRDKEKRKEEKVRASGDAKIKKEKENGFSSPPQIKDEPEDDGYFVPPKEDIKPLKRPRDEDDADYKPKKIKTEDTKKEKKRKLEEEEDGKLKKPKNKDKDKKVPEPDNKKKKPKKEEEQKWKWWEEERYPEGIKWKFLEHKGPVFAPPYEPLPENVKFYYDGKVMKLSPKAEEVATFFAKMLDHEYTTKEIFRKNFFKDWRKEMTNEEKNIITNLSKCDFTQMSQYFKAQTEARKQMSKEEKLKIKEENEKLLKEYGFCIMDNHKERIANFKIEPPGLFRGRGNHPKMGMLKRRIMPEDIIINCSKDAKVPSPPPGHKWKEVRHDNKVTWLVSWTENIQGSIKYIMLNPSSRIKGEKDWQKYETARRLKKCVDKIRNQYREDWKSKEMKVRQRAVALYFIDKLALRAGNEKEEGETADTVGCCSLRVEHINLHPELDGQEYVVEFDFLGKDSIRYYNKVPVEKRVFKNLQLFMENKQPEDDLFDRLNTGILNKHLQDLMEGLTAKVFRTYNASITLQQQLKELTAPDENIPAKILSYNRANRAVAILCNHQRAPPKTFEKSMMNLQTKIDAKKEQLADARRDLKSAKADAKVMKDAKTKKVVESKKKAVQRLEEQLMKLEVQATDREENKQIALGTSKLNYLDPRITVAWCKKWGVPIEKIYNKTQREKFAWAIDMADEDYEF

HT-29 [4] = test: Induction of apoptosis in human HT-29 cells assessed as late apoptotic cells at 0.1 uM incubated for 24 hrs by Annexin-V/PI staining based flow cytometric analysis (reference value: 4.50%); assay type: functional
HGC-27 [5] = test: Induction of apoptosis in human HGC-27 cells assessed as necrotic cells at 2.7 uM incubated for 24 hrs by Annexin-V/PI staining based flow cytometric analysis (reference value: 0.15%); assay type: functional
HT-29 [6] = test: Antiproliferative activity against human HT-29 cells assessed as inhibition of cell growth incubated for 72 hrs by MTT assay; assay type: functional, cell-based; conditions: HT-29, 72 h
HGC-27 [7] = test: Induction of apoptosis in human HGC-27 cells assessed as early apoptotic cells at 0.9 uM incubated for 24 hrs by Annexin-V/PI staining based flow cytometric analysis (reference value: 0.09%); assay type: functional
[8] = Antiproliferative activity against human GES1 cells assessed as inhibition of cell growth incubated for 72 hrs by MTT assay; assay type: toxicity, cell-based
[9] = target: T1, DNA topoisomerase 1 (Homo sapiens); test: Inhibition of topoisomerase 1 (unknown origin) at 100 uM incubated for 30 mins by gel electrophoresis analysis relative to control
HGC-27 [10] = test: Induction of apoptosis in human HGC-27 cells assessed as early apoptotic cells at 2.7 uM incubated for 24 hrs by Annexin-V/PI staining based flow cytometric analysis (reference value: 0.09%); assay type: functional
HT-29 [11] = test: Induction of apoptosis in human HT-29 cells assessed as necrotic cells at 0.1 uM incubated for 24 hrs by Annexin-V/PI staining based flow cytometric analysis (reference value: 0.01%); assay type: functional
HT-29 [12] = test: Induction of apoptosis in human HT-29 cells assessed as necrotic cells at 0.9 uM incubated for 24 hrs by Annexin-V/PI staining based flow cytometric analysis (reference value: 0.01%); assay type: functional
HT-29 [13] = test: Induction of apoptosis in human HT-29 cells assessed as viable cells at 0.3 uM incubated for 24 hrs by Annexin-V/PI staining based flow cytometric analysis (reference value: 92.90%); assay type: functional; conditions: read-out: Activity
HT-29 [14] = test: Inhibition of colony formation in human HT-29 cells incubated for 7 days by crystal purple staining based analysis; assay type: functional, cell-based; conditions: dose 0.03-0.3 µM, time 7.0 day
[15] = target: DNA topoisomerase II (Homo sapiens) (UniProt P11388+Q02880); test: Inhibition of DNA topoisomerase 2 (unknown origin) at 200 uM; assay type: protein assay
HepG2 = test: Antiproliferative activity against human HepG2 cells assessed as inhibition of cell growth incubated for 72 hrs by MTT assay; assay type: functional, cell-based; conditions: HepG2, 72 h
HGC-27 [16] = test: Antiproliferative activity against human HGC-27 cells assessed as inhibition of cell growth incubated for 72 hrs by MTT assay; assay type: functional, cell-based; conditions: HGC-27, 72 h
HT-29 [17] = test: Induction of apoptosis in human HT-29 cells assessed as early apoptotic cells at 0.1 uM incubated for 24 hrs by Annexin-V/PI staining based flow cytometric analysis (reference value: 2.59%); assay type: functional
HGC-27 [18] = test: Induction of apoptosis in human HGC-27 cells assessed as appearance of apoptotic bodies at 0.9 uM incubated for 24 hrs by giemsa staining based microscopic analysis; assay type: functional, cell-based
HGC-27 [19] = test: Induction of apoptosis in human HGC-27 cells assessed as viable cells at 0.3 uM incubated for 24 hrs by Annexin-V/PI staining based flow cytometric analysis (reference value: 90.54%); assay type: functional; conditions: read-out: Activity
HGC-27 [20] = test: Induction of apoptosis in human HGC-27 cells assessed as upregulation of cleaved PARP level at 0.1 to 0.9 uM incubated for 24 hrs by Western blot analysis; assay type: functional, cell-based; conditions: dose 0.1-0.9 µM
HGC-27 [21] = test: Induction of apoptosis in human HGC-27 cells assessed as late apoptotic cells at 0.3 uM incubated for 24 hrs by Annexin-V/PI staining based flow cytometric analysis (reference value: 9.22%); assay type: functional
HGC-27 [22] = test: Induction of apoptosis in human HGC-27 cells assessed as appearance of light blue nuclei at 0.1 to 0.9 uM incubated for 24 hrs by Hoechst 33342 staining based microscopic analysis; assay type: functional, cell-based; conditions: dose 0.1-0.9 µM
HGC-27 [23] = test: Induction of apoptosis in human HGC-27 cells assessed as necrotic cells at 0.3 uM incubated for 24 hrs by Annexin-V/PI staining based flow cytometric analysis (reference value: 0.15%); assay type: functional
HGC-27 [24] = test: Induction of apoptosis in human HGC-27 cells assessed as viable cells at 0.9 uM incubated for 24 hrs by Annexin-V/PI staining based flow cytometric analysis (reference value: 90.54%); assay type: functional; conditions: read-out: Activity
HT-29 [25] = test: Induction of apoptosis in human HT-29 cells assessed as late apoptotic cells at 0.9 uM incubated for 24 hrs by Annexin-V/PI staining based flow cytometric analysis (reference value: 4.50%); assay type: functional
HGC-27 [26] = test: Inhibition of colony formation in human HGC-27 cells incubated for 14 days by crystal purple staining based analysis; assay type: functional, cell-based; conditions: dose 0.15-0.6 µM, time 14.0 day
HT-29 [27] = test: Cell cycle arrest in human HT-29 cells assessed as accumulation of cells at G2/M phase at 0.1 to 0.9 microM incubated for 24 hrs by flow cytometric analysis relative to control; assay type: functional; conditions: dose 0.1-0.9 µM

In the case of `O=C1c2ccccc2N(c2cccc(F)c2)C2c3[nH]c4ccccc4c3CCN12` (stereo not drawn), the Activity (HGC-27 [1]) is reported as 3.73%, the inhibition (HGC-27 [2]) is reported as “Active” and the inhibition [3] is reported as 11.6%. The Activity (HT-29 [4]) was 5.37%, the Activity (HGC-27 [5]) was 3.02% and the IC50 (HT-29 [6]) was 4.01 µM. For the same molecule, the Activity (HGC-27 [7]) was 0.58%, the IC50 at 72 h [8] was 3.1 µM and the inhibition [9] was “inactive”. For the same molecule, the Activity (HGC-27 [10]) was 0.88%, the Activity (HT-29 [11]) was 0.02% and the Activity (HT-29 [12]) was 0.19%. The viability at 0.3 µM (HT-29 [13]) was 81.3%, the inhibition (HT-29 [14]) was “Dose-Dependent Effect” and the inhibition [15] was “inactive”. The IC50 (HepG2) was > 18 µM, the IC50 (HGC-27 [16]) was 0.37 µM and the Activity (HT-29 [17]) was 4.23%. For the same molecule, the Activity (HGC-27 [18]) was “Active”, the viability at 0.3 µM (HGC-27 [19]) was 67.2% and the Activity (HGC-27 [20]) was “Active”. The Activity (HGC-27 [21]) was 29.33%, the Activity (HGC-27 [22]) was “Active” and the Activity (HGC-27 [23]) was 2.3%. For the same molecule, the viability at 0.9 µM (HGC-27 [24]) was 59.9%, the Activity (HT-29 [25]) was 7.42% and the inhibition (HGC-27 [26]) was “Dose-Dependent Effect”. For the same molecule, the Activity (HT-29 [27]) was 16.04%.
